Experimental data as given in patent publication US7276519B2, “Thieno[3,2-b]pyridine-6-carbonitriles and thieno[2,3-b]pyridine-5-carbonitriles as protein kinase inhibitors” (Wyeth, priority 2002, dated 2007).
Like-named read-outs stand apart in the source and are kept apart here.

Columns and labels:
[1] = tested on: Rat2 fibroblasts stably transformed with v-Src/Hu c-Src fusion gene; assay: Anchorage independent Src-transformed fibroblast proliferation assay; assay type: cell-based, rat; conditions: for IC50: suspension growth, MTS readout Day 5; for inhibition at 100 µM: Rat2, Table 1, read-out: Src cells % inh at 100 μM
Procedure: Anchorage Independent Src-Transformed Fibroblast Proliferation Assay Rat2 fibroblasts stably transformed with a plasmid containing a CMV promotor controlled v-Src/Hu c-Src fusion gene in which the catalytic domain of human c-Src was inserted in place of the v-Src catalytic domain in the v-Src gene are used for the measurement of src dependent suspension growth. […] Multiple entries for a given compound indicate that it was tested multiple times.

[2] = Rattus norvegicus, Rat2, 120 h, Table 1, read-out: Src cells IC50
[3] = Table 1, read-out: Src cells IC50

Row | Structure (SMILES) | melting point | IC50 [1, 2] [µM] | inhibition at 100 µM ([1]; Rattus norvegicus, at 100 μM) [%] | Src cells % inh at 100 μM ([1]; Table 1, at 100 μM) [%] | IC50 [1, 3] [µM] | IC50 ([1]; Rattus norvegicus, Rat2, 120 h, read-out: Src cells IC50 μM, Table 1) [µM]
1 | COc1cc(Nc2c(C#N)cnc3cc(-c4cccc(CN5CCOCC5)c4)sc23)c(Cl)cc1Cl [Example 26, 7-[(2,4-Dichloro-5-methoxyphenyl)amino]-2-[3-(morpholin-4-ylmethyl)phenyl]thieno[3,2-b]pyridine-6-carbonitrile] | 205 to 207 °C | 1 | – | – | – | –
2 | COc1cc(Nc2c(C#N)cnc3sc(-c4ccc(C=O)cc4)cc23)c(Cl)cc1Cl [Example 27, 4-[(2,4-Dichloro-5-methoxyphenyl)amino]-2-(4-formylphenyl)thieno[2,3-b]pyridine-5-carbonitrile] | > 240 °C | – | 19 | 28 | – | –
3 | COc1cc(Nc2c(C#N)cnc3sc(CCCCO)cc23)cc(OC)c1OC [Example 30, 2-(4-Hydroxybutyl)-4-[(3,4,5-trimethoxyphenyl)amino]-thieno[2,3-b]pyridine-5-carbonitrile] | 125 to 127 °C | 23 | – | – | 25 | –
4 | COc1cc(Nc2c(C#N)cnc3cc(C#C[Si](C)(C)C)sc23)c(Cl)cc1Cl [Example 32, 7-[(2,4-Dichloro-5-methoxyphenyl)amino]-2-[(trimethylsilyl)ethynyl]thieno[3,2-b]pyridine-6-carbonitrile] | 169 to 171 °C | – | – | – | – | 1.5
5 | C#Cc1cc2ncc(C#N)c(Nc3cc(OC)c(Cl)cc3Cl)c2s1 [Example 33, 7-[(2,4-Dichloro-5-methoxyphenyl)amino]-2-ethynylthieno[3,2-b]pyridine-6-carbonitrile] | 198 to 200 °C | 0.88 | – | – | – | –
6 | COc1cc(Nc2c(C#N)cnc3cc(C#Cc4ccncc4)sc23)c(Cl)cc1Cl [Example 34, 7-[(2,4-Dichloro-5-methoxyphenyl)amino]-2-(pyridin-4-ylethynyl)thieno[3,2-b]pyridine-6-carbonitrile] | 221 to 223 °C | 8.6 | – | – | – | –
7 | COc1cc(Nc2c(C#N)cnc3cc(C#Cc4cccnc4)sc23)c(Cl)cc1Cl [Example 35, 7-[(2,4-Dichloro-5-methoxyphenyl)amino]-2-(pyridin-3-ylethynyl)thieno[3,2-b]pyridine-6-carbonitrile] | 249 to 250 °C | 0.98 | – | – | – | –
8 | COc1cc(Nc2c(C#N)cnc3cc(-c4csc(C5OCCO5)c4)sc23)c(Cl)cc1Cl [Example 36, 7-[(2,4-Dichloro-5-methoxyphenyl)amino]-2-[5-(1,3-dioxolan-2-yl)thien-3-yl]thieno[3,2-b]pyridine-6-carbonitrile] | 219 to 221 °C | 1.6 | – | – | – | –
9 | COc1cc(Nc2c(C#N)cnc3cc(-c4csc(C=O)c4)sc23)c(Cl)cc1Cl [Example 37, 7-[(2,4-Dichloro-5-methoxyphenyl)amino]-2-(5-formylthien-3-yl)thieno[3,2-b]pyridine-6-carbonitrile] | 259 to 261 °C | 1.1 | – | – | – | –
10 | COc1cc(Nc2c(C#N)cnc3cc(-c4ccc(CN5CCC(O)CC5)cc4)sc23)c(Cl)cc1Cl [Example 40, 7-[(2,4-Dichloro-5-methoxyphenyl)amino]-2-{4-[(4-hydroxypiperidin-1-yl)methyl]phenyl}thieno[3,2-b]pyridine-6-carbonitrile] | 149 to 150 °C | 0.71 | – | – | 0.43 | –
11 | COc1cc(Nc2c(C#N)cnc3cc(-c4ccc(CO)cc4)sc23)c(Cl)cc1Cl [Example 41, 7-[(2,4-Dichloro-5-methoxyphenyl)amino]-2-[4-(hydroxymethyl)phenyl]thieno[3,2-b]pyridine-6-carbonitrile] | 239 to 240 °C | 0.56 | – | – | – | –
12 | N#Cc1cnc2cc(I)sc2c1Nc1ccc(Oc2ccccc2)cc1 [Example 42, 2-Iodo-7-[(4-phenoxyphenyl)amino]thieno[3,2-b]pyridine-6-carbonitrile] | 260 to 262 °C | – | 5 | – | – | –
13 | N#Cc1cnc2cc(-c3ccc(C=O)cc3)sc2c1Nc1ccc(Oc2ccccc2)cc1 [Example 43, 2-(4-Formylphenyl)-7-[(4-phenoxyphenyl)amino]thieno[3,2-b]pyridine-6-carbonitrile] | 230 to 232 °C | – | 4 | – | – | –
14 | CN1CCN(Cc2ccc(-c3cc4ncc(C#N)c(Nc5ccc(Oc6ccccc6)cc5)c4s3)cc2)CC1 [Example 44, 2-[4-(4-Methylpiperazin-1-ylmethyl)phenyl]-7-[(4-phenoxyphenyl)amino]thieno[3,2-b]pyridine-6-carbonitrile] | 199 to 201 °C | 2.4 | – | – | – | –
15 | N#Cc1cnc2cc(-c3ccc(CN4CCOCC4)cc3)sc2c1Nc1ccc(Oc2ccccc2)cc1 [Example 45, 2-[4-(Morpholin-4-ylmethyl)phenyl]-7-[(4-phenoxyphenyl)amino]thieno[3,2-b]pyridine-6-carbonitrile] | 254 to 256 °C | – | 2 | – | – | –
16 | N#Cc1cnc2cc(-c3ccc(CO)cc3)sc2c1Nc1ccc(Oc2ccccc2)cc1 [Example 46, 2-[4-(Hydroxymethyl)phenyl]-7-[(4-phenoxyphenyl)amino]thieno[3,2-b]pyridine-6-carbonitrile] | 225 to 228 °C | – | 26 | – | – | –
17 | COc1cc(Nc2c(C#N)cnc3cc(I)sc23)cc(OC)c1OC [Example 47, 2-Iodo-7-[(3,4,5-trimethoxyphenyl)amino]thieno[3,2-b]pyridine-6-carbonitrile] | 254 to 256 °C | – | 74 | – | – | –
18 | N#Cc1cnc2cc(Br)sc2c1Nc1ccc(Oc2ccccc2)cc1 [Example 48, 2-Bromo-7-[(4-phenoxyphenyl)amino]thieno[3,2-b]pyridine-6-carbonitrile] | 248 to 250 °C | – | 30 | – | – | –
19 | N#Cc1cnc2cc(/C=C/c3ccncc3)sc2c1Nc1ccc(Oc2ccccc2)cc1 [Example 49, 7-[(4-Phenoxyphenyl)amino]-2-[(E)-2-pyridin-4-ylethenyl]thieno[3,2-b]pyridine-6-carbonitrile] | 240 to 241 °C | – | 14 | – | – | –
20 | COc1cc(Nc2c(C#N)cnc3cc(/C=C/C(=O)OC(C)(C)C)sc23)c(Cl)cc1Cl [Example 50, tert-Butyl (2E)-3-{6-cyano-7-[(2,4-dichloro-5-methoxyphenyl)amino]thieno[3,2-b]pyridin-2-yl}prop-2-enoate] | 224 °C (dec.) | 7.4 | – | – | – | –
21 | COc1cc(Nc2c(C#N)cnc3sc(C#CCN4CCN(C)CC4)cc23)c(Cl)cc1Cl [Example 51, 4-[(2,4-Dichloro-5-methoxyphenyl)amino]-2-[3-(4-methylpiperazin-1-yl)prop-1-ynyl]thieno[2,3-b]pyridine-5-carbonitrile] | 175 °C (dec.) | 9.9 | – | – | – | –
22 | COc1cc(Nc2c(C#N)cnc3sc(C#Cc4cccnc4)cc23)c(Cl)cc1Cl [Example 52, 4-[(2,4-Dichloro-5-methoxyphenyl)amino]-2-(pyridin-3-ylethynyl)thieno[2,3-b]pyridine-5-carbonitrile] | 191 °C (dec.) | – | 61 | – | – | –
23 | COc1cc(Nc2c(C#N)cnc3cc(-c4cnc(C=O)n4C)sc23)c(Cl)cc1Cl [Example 54, 7-[(2,4-Dichloro-5-methoxyphenyl)amino]-2-(2-formyl-1-methyl-1H-imidazol-5-yl)thieno[3,2-b]pyridine-6-carbonitrile] | 225 to 227 °C | 1.51 | – | – | 1.01 | –
